Measured values: publication PMC10043345, “Discovery of BAR502, as potent steroidal antagonist of leukemia inhibitory factor receptor for the treatment of pancreatic adenocarcinoma” (Frontiers in Oncology, 2023)

Legend:
FXR = molecular target: T1, FXR (Homo sapiens, UniProt Q96RI1); assay: FXR transactivation (FXR/RXR, hsp27 IR1-luciferase) in HepG2 cells; type: cell-based
T1 construct: expressed in transfected cells; host or cells: HepG2
T1 sequence (Q96RI1 1-486): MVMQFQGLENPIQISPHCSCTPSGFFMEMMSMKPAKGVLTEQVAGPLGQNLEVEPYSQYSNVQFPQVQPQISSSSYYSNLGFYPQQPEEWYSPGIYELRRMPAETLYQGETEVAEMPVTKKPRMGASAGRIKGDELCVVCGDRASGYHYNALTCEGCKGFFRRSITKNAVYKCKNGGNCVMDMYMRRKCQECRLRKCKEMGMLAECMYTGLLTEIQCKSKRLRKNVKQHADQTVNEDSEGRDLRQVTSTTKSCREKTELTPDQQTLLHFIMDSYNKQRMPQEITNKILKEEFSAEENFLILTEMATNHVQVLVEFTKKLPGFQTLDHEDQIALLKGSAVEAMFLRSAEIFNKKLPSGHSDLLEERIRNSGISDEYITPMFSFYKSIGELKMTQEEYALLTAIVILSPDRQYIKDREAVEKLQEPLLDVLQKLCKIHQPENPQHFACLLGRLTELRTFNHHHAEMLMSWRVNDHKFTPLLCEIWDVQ
T1 sequence (P19793 1-462 partner): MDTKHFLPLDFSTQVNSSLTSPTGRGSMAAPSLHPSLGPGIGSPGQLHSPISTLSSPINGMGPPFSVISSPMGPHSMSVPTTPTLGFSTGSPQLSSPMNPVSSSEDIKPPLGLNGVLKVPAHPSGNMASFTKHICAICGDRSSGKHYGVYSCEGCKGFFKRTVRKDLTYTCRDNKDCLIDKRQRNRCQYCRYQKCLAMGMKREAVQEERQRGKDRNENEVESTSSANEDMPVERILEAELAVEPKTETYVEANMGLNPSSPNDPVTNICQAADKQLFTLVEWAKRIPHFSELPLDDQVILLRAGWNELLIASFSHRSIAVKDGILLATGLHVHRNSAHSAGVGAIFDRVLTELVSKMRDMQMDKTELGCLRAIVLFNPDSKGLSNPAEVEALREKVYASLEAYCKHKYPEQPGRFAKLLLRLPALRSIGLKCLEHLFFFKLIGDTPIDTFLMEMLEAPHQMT
Experimental: On day 0, HepG2 were seeded at 7.5 × 10^4 cells/well in a 24-well plate and maintained at 37°C and 5% CO2 in E-MEM supplemented with 10% FBS, 1% glutamine, and 1% penicillin/streptomycin. On day 1, cells were transiently transfected with the reporter plasmid pGL4.47[luc2P/SIE/Hygro] (200 ng) (CAT#: E4041 Promega, Madison, WI, USA), a vector encoding the hLIFR (CAT# RC226327) (100 ng) and CD130 (IL6ST) (100 ng) (CAT#: RC215123, OriGene Technologies, Inc. Rockville, MD, USA), and finally a vector encoding the human RENILLA luciferase gene (pGL4.70) (100 ng) (Promega, Madison, WI, USA). On day 2, cells were exposed to the cytokine LIF (10 ng/mL) alone or in combination with BAR502 (from 0.1 to 20 μM). […] For FXR mediated transactivation, HepG2 cells were plated at 7.5 × 10^4 cells/well in a 24 well plate. Cells were transfected with 200 ng of the reporter vector p(hsp27)-TK-LUC containing a FXR response element (IR1) cloned from the promoter of heat shock protein 27 (hsp27), 100 ng of pSG5-FXR, 100 ng of pSG5-RXR, and 100 ng of pGL4.70 (Promega), a vector encoding the human Renilla gene. To perform STAT3 transactivation, HepG2 were seeded at 7.5× 10^4 cells/well in a 24-well plate. On the day-1, cells were transiently transfected with 200 ng of the reporter plasmid pGL4.47[luc2P/SIE/Hygro] […] Luminescence was measured using a Glomax 20/20 luminometer (Promega, Madison, WI, USA). […]

human GPBAR1 = molecular target: T2, human GPBAR1 (Homo sapiens, UniProt Q8TDU6); assay: GPBAR1 transactivation (CRE-luciferase) in HEK-293T cells; type: cell-based
T2 construct: expressed in transfected cells; host or cells: HEK-293T
T2 sequence (Q8TDU6 1-330): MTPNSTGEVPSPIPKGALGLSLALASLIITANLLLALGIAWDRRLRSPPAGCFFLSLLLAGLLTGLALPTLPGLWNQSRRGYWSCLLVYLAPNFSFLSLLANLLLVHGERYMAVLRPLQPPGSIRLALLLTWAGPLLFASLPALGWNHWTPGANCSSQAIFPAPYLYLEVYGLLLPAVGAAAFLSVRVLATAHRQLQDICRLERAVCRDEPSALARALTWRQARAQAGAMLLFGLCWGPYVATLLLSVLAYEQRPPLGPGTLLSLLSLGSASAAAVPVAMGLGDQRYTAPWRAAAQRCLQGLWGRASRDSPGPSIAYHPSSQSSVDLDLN

| SMILES | IC50 (FXR; read-out: HepG2 FXR/RXR Antagonism IC50) [µM] | IC50 (human GPBAR1; Hek293T, transactivation induced by TLCA (10 μM), read-out: Hek293T GPBAR1 Antagonism IC50) [µM] | EC50 (FXR; transactivation, agonism, read-out: FXR EC50 Transact) [µM] | EC50 (human GPBAR1; transactivation, agonism, read-out: GPBAR1 EC50 Transact) [nM] |
| --- | --- | --- | --- | --- |
| OCc1ccc(-c2ccc(OCc3cc(-c4c(Cl)cccc4Cl)no3)cc2)cc1 [PDL103, (4’-((3-(2,6-dichlorophenyl)isoxazol-5-yl)methoxy)-[1,1’-biphenyl]-4-yl)methanol] | 10 | 19 |  |  |
| CC[C@H]1[C@@H](O)C2C3CC[C@H]([C@H](C)CCO)[C@@]3(C)CCC2[C@@]2(C)CC[C@@H](O)C[C@@H]12 (stereo partly shown) [BAR502] |  |  | 3 ± 1 | 400 ± 100 |
